According to patent US20050026911A1, “Benzotriazapinone salts and methods for using same” (priority 2003, published 2005):

Experiments:
CCK2 receptor = target: T1, CCK2 receptor (Rattus norvegicus, UniProt P30553); details: rat cortical membranes; Nishida et al. 1994; cited from earlier work
T1 construct: host or cells: rat cortical membranes
T1 sequence (P30553 1-452): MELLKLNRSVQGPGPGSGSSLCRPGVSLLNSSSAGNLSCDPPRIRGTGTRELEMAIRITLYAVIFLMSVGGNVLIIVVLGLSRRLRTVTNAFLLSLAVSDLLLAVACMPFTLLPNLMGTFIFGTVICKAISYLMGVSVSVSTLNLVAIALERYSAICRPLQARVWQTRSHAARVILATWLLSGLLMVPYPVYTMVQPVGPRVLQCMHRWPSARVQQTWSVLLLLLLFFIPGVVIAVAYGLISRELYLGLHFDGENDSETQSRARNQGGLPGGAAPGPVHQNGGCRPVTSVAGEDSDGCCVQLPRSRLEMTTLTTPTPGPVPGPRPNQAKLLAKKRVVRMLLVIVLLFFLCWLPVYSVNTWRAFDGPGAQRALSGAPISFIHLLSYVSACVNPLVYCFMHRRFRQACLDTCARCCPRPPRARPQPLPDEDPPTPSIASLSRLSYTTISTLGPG

[1] = target: T2, human gastrin (CCK2) receptors (Homo sapiens, UniProt P32239); assay: [125I]-BH-CCK-8S binding at human gastrin (CCK2) receptors cloned into an NIH3T3 cell line; details: for Ki: read-out: pKi ± s.e.mean (converted); for pKi ± s.e.mean: displacement of [125I]-BH-CCK-8S, hCCK2R NIH3T3 clone 7 cell membranes
T2 construct: amplified by PCR (polymerase chain reaction) from the start codon to the stop codon; expressed in transfected cells
T2 sequence (P32239 1-447): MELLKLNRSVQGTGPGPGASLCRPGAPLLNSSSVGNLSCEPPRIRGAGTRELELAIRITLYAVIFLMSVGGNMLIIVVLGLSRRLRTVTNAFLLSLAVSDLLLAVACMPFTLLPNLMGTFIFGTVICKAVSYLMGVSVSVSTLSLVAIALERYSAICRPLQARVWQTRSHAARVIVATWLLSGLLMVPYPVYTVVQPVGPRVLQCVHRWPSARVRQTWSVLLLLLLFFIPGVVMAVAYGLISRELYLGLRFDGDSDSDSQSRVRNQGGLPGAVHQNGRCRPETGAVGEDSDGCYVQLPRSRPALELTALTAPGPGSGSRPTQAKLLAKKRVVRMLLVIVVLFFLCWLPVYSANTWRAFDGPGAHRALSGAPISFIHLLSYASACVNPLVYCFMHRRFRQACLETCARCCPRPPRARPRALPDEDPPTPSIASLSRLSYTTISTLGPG
Protocol: NIH3T3 cells from (ECACC) were cultured in Dulbecco's modified Eagle's medium (DMEM) (Invitrogen), containing 2 mM Glutamax I (Invitrogen), 10% heat inactivated newborn calf serum (Invitrogen). Cells (4×10^5) were seeded into 35 mm×10 mm dishes (Corning) and transfected using the Transfast™ reagent (Promega Corp.) according to the manufacturers instructions using 10 μg of the hCCK2R plasmid DNA at a ratio of 1:1 (DNA:Transfast™ reagent). Untransfected cells and cells transfected with vector only were also prepared as controls. After 48 h the cells were trypsinised using standard techniques (Culture of Animal Cells, A Manual of Basic Techniques 4th Ed, R. Ian Freshney) and dilutions were plated on 35 mm×10 mm dishes in media containing 800 μg/ml G-418 (Invitrogen). Cells were selected for 2 weeks until individual, separate colonies appeared. […] Using cloning rings and trypsinisation, according to standard techniques (Culture of Animal Cells, A Manual of Basic Techniques 4th Ed, R. Ian Freshney), individual colonies were picked from plates containing cells transfected with the vector only and cells transfected with the hCCK2R plasmid construct. The cells were expanded and analysed by radioligand binding analysis (see below).
Cultured clone 7 cells were stored as frozen pellets at −70° C. until required. Cell pellets were thawed in CCK2 assay buffer ((mM): 10 Hepes; 130 NaCl; 5 MgCl2; 4.7 KCl; 1 EGTA (pH7.2 at 21° C.) with 0.125 g Bacitracin added to each litre), and homogenised using a Polytron (4×1 s). The resulting membrane preparation was centrifuged at 39,800 g for 15 min at 4° C. Each cell pellet was re-suspended in fresh buffer and re-centrifuged as above. The final pellet was re-suspended by homogenisation (Teflon-in-glass), to the appropriate membrane concentration.
The assays were terminated by rapid filtration through pre-soaked Whatman GF/B filters which were washed (3×3 ml) with ice-cold 50 mM Tris HCl (pH7.4 @ 4° C.). Filters were transferred to plastic gamma counter vials and bound radioactivity determined by counting (1 min) in a Clini-gamma counter.
Saturation data were analysed using the curve-fitting programmes, Radlig and Ligand.
Briefly, dilution and addition of test compounds, radioligand and cell membranes were performed using a Beckman Biomek 2000. The ability of compounds to inhibit the specific binding of to hCCK2 receptors was determined in triplicate over a range of concentrations at half-log intervals. Total and non-specific binding was determined for each compound. Each compound was tested in a minimum of three experiments. Competition data were fitted to the Hill equation using Graph-pad Prism software to obtain estimates of the IC50 (mid-point location parameter) and nH (mid-point slope parameter). Dissociation constants (KI) were determined using the Cheng & Prusoff equation (1973) to correct for the receptor occupancy by the radioligand.

gastrin (CCK2) receptors [2] = target: T3, gastrin (CCK2) receptors (Rattus norvegicus, UniProt P30553); assay: gastrin (CCK2) antagonist activity in an immature rat stomach assay; details: pentagastrin dose-response curves, acid secretion, read-out: pKB rat stomach (converted)
T3 construct: The stomach was excised and flushed with ca. 1 ml of unbuffered physiological saline solution; from tissue; host or cells: isolated whole stomach of immature rats (ca. 21 days old)
T3 sequence (P30553 1-452): T1 sequence (P30553 1-452)
Procedure, shortened: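 Stomachs excised from immature rats (33-50 g, ca. 21 days old) were perfused at 1 ml min^−1 with unbuffered O2-gassed saline, with acid output tracked by a pH electrode. After 120 min stabilisation, drug was added to the serosal bath, followed 60 min later by cumulative pentagastrin dose-response curves.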

gastrin (CCK2) receptors [3] = target: T3, gastrin (CCK2) receptors; details: rat stomach assay; Kalindjian et al., J. Med. Chem. 1994; cited from earlier work

Row | Compound | Ki [1] | Kb (gastrin (CCK2) receptors [2]) | further results
1 | CNc1cccc(NC(=O)N[C@@H]2N=C(c3ccccn3)c3ccccc3N(CC(=O)C(C)(C)C)C2=O)c1 [YF476] |  |  | affinity pKi for the CCK2 receptor (CCK2 receptor): 10.17+0.03
2 | O=C(CN1N=C(C2CCCCC2)c2ccccc2N(CC(=O)C2CCCC2)C1=O)Nc1cccc(C(=O)O)c1 [Example 22, 3-{2-[5-Cyclohexyl-1-(2-cyclopentyl-2-oxo-ethyl)-2-oxo-1,2-dihydro-3H-1,3,4-benzotriazepin-3-yl]-acetylamino}-benzoic acid] | 0.355 nM | 1.86 nM | 
3 | CN1C(=O)N(CC(=O)Nc2ccccc2)[N+]([O-])=C(C2CCCCC2)c2ccccc21 [Example 160, 2-(5-Cyclohexyl-1-methyl-2-oxo-4-oxy-1,2-dihydro-3H-1,3,4-benzotriazepin-3-yl)-N-phenyl-acetamide] | 3240 nM | 2.82 nM | 
4 | O=C(O)CSc1cccc(NC(=O)CN2N=C(C3CCCCC3)c3ccccc3N(CC(=O)C3CCCC3)C2=O)c1 [Example 58, (3-{2-[5-Cyclohexyl-1-(2-cyclopentyl-2-oxo-ethyl)-2-oxo-1,2-dihydro-3H-1,3,4-benzotriazepin-3-yl]-acetylamino}-phenylsulfanyl)-acetic acid] |  | 1.48 nM | pKi ± s.e.mean [1]: 9.48 ± 0.08
5 | O=C(O)Cc1cccc(NC(=O)CN2N=C(C3CCCCC3)c3ccccc3N(CC(=O)C3CCCC3)C2=O)c1 [Example 56, (3-{2-[5-Cyclohexy-1-(2-cyclopentyl-2-oxo-ethyl)-2-oxo-1,2-dihydro-3H-1,3,4-benzotriazepin-3-yl]-acetylamino}-phenyl)-acetic acid] | 0.162 nM | 0.741 nM | 
6 | CC(C)(C)C(=O)CN1C(=O)N(CC(=O)Nc2cccc(-c3nc(=O)o[nH]3)c2)N=C(C2CCCCC2)c2ccccc21 [Example 59, 2-[5-Cyclohexyl-1-(3,3-dimethyl-2-oxo-butyl)-2-oxo-1,2-dihydro-3H-1,3,4-benzotriazepin-3-yl]-N-[3-(5-oxo-Z5-dihydro-[1,2,4]oxadiazol-3-yl)-phenyl]-acetamide] | 0.219 nM | 9.55 nM | 
7 | O=C(CN1N=C(C2CCCCC2)c2ccccc2N(CC(=O)C2CCCC2)C1=O)Nc1cccc(-c2nc(=O)o[nH]2)c1 [Example 121, 2-[5-Cyclohexyl-1-(2-cyclopentyl-2-oxo-ethyl)-2-oxo-1,2-dihydro-3H-1,3,4-benzotriazepin-3-yl]-N-[3-(5-oxo-Z 5-dihydro-[1,2,4]oxadiazol-3-yl)-phenyl]-acetamide] | 0.11 nM | 0.295 nM | 
8 | Cc1cccc(NC(=O)N[C@@H]2N=C(c3ccccc3)c3ccccc3N(C)C2=O)c1 [L-365,260] |  |  | affinity pKB for the CCK2 receptor (gastrin (CCK2) receptors [3]): 7.61±0.12
9 | Cc1cccc(NC(=O)N[C@@H]2N=C(c3ccccc3)c3ccccc3N(CC(=O)c3ccccc3C)C2=O)c1 [YM022, reference compound] |  |  | pKi ± s.e.mean [1]: 10.19 ± 0.03
10 | O=C(O)CCc1cccc(NC(=O)CN2N=C(C3CCCCC3)c3ccccc3N(CC(=O)C3CCCC3)C2=O)c1 [Example 128, 3-(3-{2-[5-Cyclohexyl-1-(2-cyclopentyl-2-oxo-ethyl)-2-oxo-1,2-dihydro-3H-1,3,4-benzotriazepin-3-yl]-acetylamino}-phenyl)-propionic acid] | 0.204 nM | 1.23 nM | 
